In patent US7511041B2, “Fused azole-pyrimidine derivatives” (Bayer Pharmaceuticals Corporation, priority 2002, dated 2009) one finds melting point data, which are given here for 65 molecules.

Broadly, the melting point is the temperature of the solid-liquid transition.

As for `COc1ccc2c(c1OC)N=C(NC(=O)c1cnc3[nH]cnc3c1)N1CCN=C21.Cl` [Example 2-52], the melting point is 210 °C (dec.).
In the case of `COc1cc2c(cc1OC)C1=NCCN1C(NC(=O)c1cncc(O)c1)=N2.Cl` [Example 2-55] it was 260 °C (dec.).
As for `COc1cc2c(cc1OC)C1=NCCN1C(NC(=O)c1ccc(NC(C)=O)nc1)=N2.Cl` [Example 2-58], the melting point was 279 °C.
In the case of `COc1cc2c(cc1OC)C1=NCCN1C(NC(=O)c1ccc3[nH]cnc3c1)=N2.Cl` [Example 2-61] it was 276 °C; in that of `COc1ccc2c(c1Br)N=C(NC(=O)c1cccnc1)N1CCN=C21.Cl` [Example 2-66], 298 °C.
The figure for `COc1cc(OC)c2c(c1)C1=NCCN1C(NC(=O)c1ccc(NC(C)=O)nc1)=N2.Cl` [Example 2-71] is 270 °C (dec.).
Turning to `COc1cc(OC)c2c(c1)C1=NCCN1C(NC(=O)c1ccc3[nH]cnc3c1)=N2.Cl` [Example 2-73], the melting point was 289 °C (dec.).
For `COc1cc2c(c(OC)c1C)N=C(NC(=O)c1cccnc1C)N1CCN=C21.Cl` [Example 2-78], the melting point is 230 °C (dec.).
The figure for `COc1cc2c(c(OC)c1C)N=C(NC(=O)c1ccc3[nH]cnc3c1)N1CCN=C21.Cl` [Example 2-82] is 280 °C (dec.); for `Cl.O=C(NC1=Nc2ccc(Cl)cc2C2=NCCN12)c1cccnc1` [Example 2-85] it is 309 °C; for `Cl.O=C(NC1=Nc2ccc(Br)cc2C2=NCCN12)c1cccnc1` [Example 2-88] it is 316 °C.
Regarding `C=Cc1ccc2c(c1)C1=NCCN1C(NC(=O)c1cccnc1)=N2.Cl` [Example 2-96], the melting point was 275 to 277 °C.
The figure for `Cl.O=C(NC1=Nc2c(F)cccc2C2=NCCN12)c1ccc2[nH]cnc2c1` [Example 2-102] is over 300 °C; for `Cc1cccc2c1N=C(NC(=O)c1cccnc1)N1CCN=C21.Cl` [Example 2-108] it is over 290 °C; for `Cc1cccc2c1N=C(NC(=O)c1ccc3[nH]cnc3c1)N1CCN=C21.Cl` [Example 2-110] it is over 290 °C.
In the case of `Cl.O=C(NC1=Nc2c(cccc2C(F)(F)F)C2=NCCN12)c1ccc2[nH]cnc2c1` [Example 2-113] it was 270 °C; in that of `COc1cccc2c1N=C(NC(=O)c1cccnc1)N1CCN=C21.Cl` [Example 2-115], 237 °C (dec.).
For the molecule `COc1cccc2c1N=C(NC(=O)c1cccnc1Cl)N1CCN=C21.Cl` [Example 2-119], the melting point was 266 °C (dec.).
Molecule `COc1cccc2c1N=C(NC(=O)c1ccc3[nH]cnc3c1)N1CCN=C21.Cl` [Example 2-125] showed a melting point of 238 °C.
In the case of `COc1cccc2c1N=C(NC(=O)c1cc3cccnc3nc1C)N1CCN=C21.Cl` [Example 2-127] it was 225 °C (dec.); in that of `COc1cccc2c1N=C(NC(=O)c1cc3cccnc3nc1C(F)(F)F)N1CCN=C21.Cl` [Example 2-129], 225 °C (dec.); in that of `Cc1ncccc1C(=O)NC1=Nc2ccccc2C2=NCCN12.Cl` [Example 2-132], 277 °C (dec.).
As to `Cc1ccncc1C(=O)NC1=Nc2ccccc2C2=NCCN12.Cl` [Example 2-137], the melting point was 291 °C (dec.).
In the case of `Cl.O=C(NC1=Nc2ccccc2C2=NCCN12)c1cncc(O)c1` [Example 2-139] it was 296 to 297 °C.
`COc1cncc(C(=O)NC2=Nc3ccccc3C3=NCCN23)c1.Cl` [Example 2-141]: the melting point was 272 °C (dec.).
As to `Cc1ccc(C(=O)NC2=Nc3ccccc3C3=NCCN23)cn1.Cl` [Example 2-148], the melting point was 310 °C (dec.).
The figure for `Cl.Nc1ccc(C(=O)NC2=Nc3ccccc3C3=NCCN23)cn1` [Example 2-150] is 290 °C (dec.).
For `CC(=O)Nc1ccc(C(=O)NC2=Nc3ccccc3C3=NCCN23)cn1.Cl` [Example 2-152], the melting point was 312 °C (dec.).
As for `CNc1ccc(C(=O)NC2=Nc3ccccc3C3=NCCN23)cn1.Cl` [Example 2-154], the melting point was 300 °C (dec.).
As for `Cc1nc(N)ccc1C(=O)NC1=Nc2ccccc2C2=NCCN12.Cl` [Example 2-158], the melting point is 289 °C (dec.).
As for `Cc1cc(C(=O)NC2=Nc3ccccc3C3=NCCN23)cnc1N.Cl` [Example 2-160], the melting point was 311 °C (dec.).
In the case of `Cc1nc2ccccn2c1C(=O)NC1=Nc2ccccc2C2=NCCN12.Cl` [Example 2-171] it was 328 °C (dec.); in that of `Cl.O=C(NC1=Nc2ccccc2C2=NCCN12)c1cnc2[nH]cnc2c1` [Example 2-173], 287 °C (dec.).
The figure for `Cc1nc2ncccc2cc1C(=O)NC1=Nc2ccccc2C2=NCCN12.Cl` [Example 2-175] is 270 °C (dec.); for `Cl.O=C(NC1=Nc2ccccc2C2=NCCN12)c1sccc1Cl` [Example 2-181] it is 298 °C (dec.).
In the case of `Cl.O=C(NC1=Nc2ccccc2C2=NCCN12)c1ccsc1` [Example 2-184] it was 297 °C (dec.); in that of `CCn1nc(C)cc1C(=O)NC1=Nc2ccccc2C2=NCCN12.Cl` [Example 2-192], 271 to 272 °C; in that of `Cl.O=C(NC1=Nc2ccccc2C2=NCCN12)c1c[nH]cn1` [Example 2-194], 309 to 310 °C.
As to `Cl.O=C(NC1=Nc2cc(OCCO)ccc2C2=NCCN12)c1cccnc1` [Example 2-198], the melting point was 249 °C (dec.).
Take `Cl.O=C(NC1=Nc2cc(OCCOCCO)ccc2C2=NCCN12)c1cccnc1` [Example 2-202]: the melting point was 229 °C (dec.).
The molecule `Cl.O=C(NC1=Nc2cc(OCC(=O)N3CCOCC3)ccc2C2=NCCN12)c1cccnc1` [Example 2-208] yielded a melting point of 227 °C.
Turning to `COc1c(C)cc(C(=O)NC2=Nc3ccccc3C3=NCCN23)cc1C.Cl` [Example 2-221], the melting point was 288 °C (dec.).
As to `Cc1cc(C(=O)NC2=Nc3ccccc3C3=NCCN23)cc(C)c1[N+](=O)[O-].Cl` [Example 2-223], the melting point was 313 °C (dec.).
The figure for `O=C(NC1=Nc2ccccc2C2=NCCN12)c1ccc(Cl)cc1.O=C(O)C(F)(F)F` [Example 2-230] is 243 to 245 °C; for `COc1cc(C(=O)NC2=Nc3ccccc3C3=NCCN23)cc(OC)c1C.Cl` [Example 2-242] it is 321 °C (dec.); for `CSc1ccc(C(=O)NC2=Nc3ccccc3C3=NCCN23)cc1.Cl` [Example 2-244] it is 292 °C (dec.).
In the case of `CS(=O)(=O)c1ccc(C(=O)NC2=Nc3ccccc3C3=NCCN23)cc1.Cl` [Example 2-246] it was 320 °C (dec.); in that of `Cl.NS(=O)(=O)c1ccc(C(=O)NC2=Nc3ccccc3C3=NCCN23)cc1` [Example 2-248], 308 °C (dec.); in that of `Cl.NS(=O)(=O)c1ccc(C(=O)NC2=Nc3ccccc3C3=NCCN23)c(Cl)c1` [Example 2-250], 300 °C (dec.).
In turn, `O=C(NC1=Nc2ccccc2C2=NCCN12)c1cccc([N+](=O)[O-])c1.O=C(O)C(F)(F)F` [Example 2-253] returned a melting point of 238 to 239 °C.
The figure for `O=C(NC1=Nc2ccccc2C2=NCCN12)c1ccc([N+](=O)[O-])cc1.O=C(O)C(F)(F)F` [Example 2-255] is 265 °C (dec.).
Take `CN(C)c1cccc(C(=O)NC2=Nc3ccccc3C3=NCCN23)c1.Cl` [Example 2-259]: the melting point was 266 °C (dec.).
For `CN(C=O)c1ccc(C(=O)NC2=Nc3ccccc3C3=NCCN23)cc1.Cl` [Example 2-264], the melting point is 304 °C (dec.).
The figure for `Cl.O=C(NC1=Nc2ccccc2C2=NCCN12)c1ccc(-n2cccc2)cc1` [Example 2-267] is 309 °C (dec.).
Turning to `Cl.O=C(NC1=Nc2ccccc2C2=NCCN12)c1ccc(-n2ccnc2)cc1` [Example 2-269], the melting point was 324 °C (dec.).
Consider `Cl.O=C(NC1=Nc2ccccc2C2=NCCN12)c1ccc(-n2cccn2)cc1` [Example 2-271], for which the melting point was 319 °C (dec.).
Turning to `CCOC(=O)c1cc(C(=O)NC2=Nc3ccccc3C3=NCCN23)cc(C(=O)OCC)c1.Cl` [Example 2-275], the melting point was determined as 282 °C.
As for `O=C(NC1=Nc2ccccc2C2=NCCN12)c1ccccn1.O=C(O)C(F)(F)F` [Example 2-277], the melting point is 206 °C (dec.).
The figure for `O=C(NC1=Nc2ccccc2C2=NCCN12)c1cnccn1.O=C(O)C(F)(F)F` [Example 2-293] is 234 °C (dec.).
In the case of `Cc1cnc(C(=O)NC2=Nc3ccccc3C3=NCCN23)cn1.O=C(O)C(F)(F)F` [Example 2-295] it was 231 °C (dec.).
The figure for `Cl.Cn1cccc1C(=O)NC1=Nc2ccccc2C2=NCCN12` [Example 2-297] is 264 °C (dec.); for `Cl.O=C(NC1=Nc2ccccc2C2=NCCN12)c1ccc([N+](=O)[O-])s1` [Example 2-304] it is 300 °C (dec.); for `Cl.O=C(NC1=Nc2ccccc2C2=NCCN12)c1csc([N+](=O)[O-])c1` [Example 2-306] it is 296 °C (dec.).
Turning to `Cl.O=C(NC1=Nc2ccccc2C2=NCCN12)c1csc(-c2cccnc2)n1` [Example 2-320], the melting point was 310 °C (dec.).
For the molecule `Cl.O=C(NC1=Nc2ccccc2C2=NCCN12)c1csc(-c2ccncc2)n1` [Example 2-322], the melting point is 335 °C (dec.).
